Source: US5658938A, “Substituted 1H-imidazoles” (U C B S.A., priority 1994, dated 1997)
Like-named read-outs stand apart in the source and are kept apart here.

Legend:
[1] = molecular target: T1, postsynaptic α1 -adrenergic receptor (Rattus norvegicus, UniProt P23944); test: Postsynaptic α1-antagonist activity: inhibition of norepinephrine-induced contraction of the isolated aorta of the rat; conditions: read-out: ED30 (concentration which causes 30% inhibition of the contraction induced by norepinephrine)
T1 construct: isolated aorta of the rat; from tissue; host or cells: rat isolated aorta
T1 sequence (P23944 1-561): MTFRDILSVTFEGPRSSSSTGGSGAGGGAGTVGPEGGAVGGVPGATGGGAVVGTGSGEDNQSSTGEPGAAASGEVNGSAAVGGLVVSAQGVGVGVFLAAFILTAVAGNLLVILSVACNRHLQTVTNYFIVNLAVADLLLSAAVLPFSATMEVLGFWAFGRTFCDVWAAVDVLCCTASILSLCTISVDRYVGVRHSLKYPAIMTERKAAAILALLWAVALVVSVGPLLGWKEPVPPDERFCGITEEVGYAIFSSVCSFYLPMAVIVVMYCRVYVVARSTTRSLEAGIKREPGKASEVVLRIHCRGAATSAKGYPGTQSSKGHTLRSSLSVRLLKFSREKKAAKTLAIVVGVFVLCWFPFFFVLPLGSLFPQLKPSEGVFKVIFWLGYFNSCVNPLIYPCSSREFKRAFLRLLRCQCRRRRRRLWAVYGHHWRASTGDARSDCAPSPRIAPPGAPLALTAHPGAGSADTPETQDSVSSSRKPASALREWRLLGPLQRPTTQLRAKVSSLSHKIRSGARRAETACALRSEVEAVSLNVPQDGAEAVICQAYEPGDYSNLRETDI
Description: A non selective α-agonist substance such as norepinephrine induces a sustained contraction of the isolated aorta of the rat (J. M. Van Rossum Arch. Int. Pharmacodyn. 143, (1963), 299-330). This contraction can be inhibited by α1 -adrenergic blocking substances such as prazosin. In this test, a control contraction is carried out with norepinephrine at 3.2×10^-8 mole/l. After washing and stabilizing the preparation, the compound to be tested is added to the bath. Norepinephrine is added 5 minutes after the compound tested, and inhibition of the contraction induced by norepinephrine is measured. Next, inhibition of the contraction induced by norepinephrine is evaluated a second and third time in the presence of increasing concentrations of the compound tested.

[2] = tested on: presynaptic α2 -adrenergic receptors; test: Inhibition of the contraction of the electrically stimulated guinea pig ileum (presynaptic α2-agonist activity); conditions: guinea pig ileum longitudinal muscle strips, electrical stimulation
Text: Longitudinal muscle strips attached to an isometric strain gauge are suspended in Tyrode's solution and are stretched under a tension of 1 g (G. M. Drew, Brit. J. Pharmacol. 64, (1978), 293-300; M. Andrejak et al., Naunyn-Schmiedeberg's Arch. Pharmacol. 314, (1980), 83-87).
Electrical stimulation of the parasympathetic nerves associated with the ileum fragments causes a contraction of the muscle. This contraction is reduced in the presence of a presynaptic α2 -agonist and the magnitude by which the contraction is reduced depends on the concentration of the agonist used. This effect is antagonised by the simultaneous presence of an α2 -antagonist such as alpha-yohimbine.
The IC30 concentration (in mole/l) that reduces by 30% the intensity of the contraction of the muscle is determined.

[3] = tested on: coronary occlusion in the rat; test: Anti-ischemic and anti-hypertensive activity: coronary occlusion in the anesthetized rat (elevation of the T wave of the electrocardiogram, arterial pressure); type: in vivo, male albino rat of the Sprague-Dawley strain; conditions: Rattus norvegicus, iv
Text: The cardiac anti-ischemic activity of compounds manifests itself by their capacity to oppose the elevation of the T wave of the electrocardiogram, induced by a coronary occlusion in the rat. Continuous monitoring of the arterial pressure also enables to reveal the anti-hypertensive effects. The animal used for the test is a male albino rat of the Sprague-Dawley strain, weighing 220 to 280 g. On the day of the experiment, the animal is anesthetized by intraperitoneal administration of pentobarbital (60 mg/kg), then placed under endotracheal intubation. A ligature system is fitted around the descending left anterior coronary artery according to the procedure of Johnston et el. (Can. J. Physiol. Pharmacol., 61 (1983), 1340-1353). After closing the thorax, three electrodes are arranged on the body of the animal ("V4" thoracic derivation), in order to continuously record the shape of the electrocardiogram signal (in particular the T wave). Catheters are introduced into the right carotid artery and the right jugular vein to measure the arterial pressure and to administer intravenously the compound tested or the vehicle solution. Four 45 second coronary occlusions are performed, separated by episodes of reperfusion of 30, 35 and 30 minutes respectively. The compound to be studied or the vehicle are administered intravenously in bolus, 30 minutes before occlusion 3. The T electrocardiographic signal and the arterial pressure are continuously measured during the entire experiment.
The effects of the compounds according to the invention are quantified by comparing the amplitude of the elevation of the T wave at occlusions 3 and 4 (that is 30 minutes and 60 minutes after administration) with its value at occlusion 2 (that is before administration).
the second column indicates the dose of compound administered, expressed in mole/kg;
the third and the fourth columns indicate the anti-ischemic effect caused by administering the compound tested. The anti-ischemic effect represents the reduction in the elevation of the T wave caused by coronary occlusions 3 and 4, expressed in % with respect to occlusion 2, before administration of the compound (ΔT3 and ΔT4 respectively);
the fifth and sixth columns indicate the anti-hypertensive effect caused by administration of the compound tested. The anti-hypertensive effect is expressed as the maximum lowering of arterial pressure, measured a) between 5 and 30 minutes, and b) between 30 and 60 minutes after intravenous injection of the compound tested (ΔPa and ΔPb respectively). This lowering is expressed in % with respect to the value measured before injection.

male NMRI mice = test: Toxicity, Irwin's test; type: in vivo; conditions: intraperitoneal
Description: The toxicity of the compounds of the invention has been determined in male NMRI mice by means of Irwin's test (S. Irwin, Psychopharmacologia (Berl.), 13, (1968), 222-257).
Progressive doses of the product studied are administered intraperitoneally to groups of three mice until a lethal dose is reached (dose causing the death of two out of three animals in 48 hours). It follows from this Table that the compounds of the invention are not very toxic.

α-adrenergic receptors = conditions: cited from earlier work
[4] = 0.5 h, read-out: ΔPa (maximum lowering of arterial pressure)
[5] = 0.5 h, read-out: ΔT3 (anti-ischemic effect: change in elevation of the T wave, occlusion 3 vs occlusion 2)
[6] = 1 h, read-out: ΔPb (maximum lowering of arterial pressure)
[7] = 1 h, read-out: ΔT4 (anti-ischemic effect: change in elevation of the T wave, occlusion 4 vs occlusion 2)

| Structure (SMILES) | IC30 [1] | IC30 (concentration that reduces by 30% the intensity of the contraction of the muscle) [2] | change in vivo at 3 µmol/kg [3, 4] | change in vivo at 3 µmol/kg [3, 5] | change in vivo at 3 µmol/kg [3, 6] | change in vivo at 3 µmol/kg [3, 7] | Lethal dose (dose causing the death of two out of three animals in 48 hours) (male NMRI mice) | change in vivo at 1 µmol/kg [3, 4] | change in vivo at 1 µmol/kg [3, 5] | change in vivo at 1 µmol/kg [3, 6] | change in vivo at 1 µmol/kg [3, 7] | affinity towards α-adrenergic receptors, in words (α-adrenergic receptors) |
| --- | --- | --- | --- | --- | --- | --- | --- | --- | --- | --- | --- | --- |
| Cc1cccc2c1CCCC2c1c[nH]cn1 (stereo not shown) [Compound B, 4-(1,2,3,4-tetrahydro-5-methyl-1-naphthalenyl)-1H-imidazole] | 0.033 µM | 0.88 nM | -33% | -48% | -16% | -29% | > 67.9 mg/kg | – | – | – | – | – |
| COc1cccc2c1CCCC2c1c[nH]cn1 (stereo not shown) [Compound E, 4-(1,2,3,4-tetrahydro-5-methoxy-1-naphthalenyl)-1H-imidazole] | 0.46 µM | 1.7 nM | – | – | – | – | 127.8 mg/kg | -45% | -31% | -20% | -13% | – |
| CC1(c2c[nH]cn2)CCCc2ccccc21 (stereo not shown) [4-(1,2,3,4-tetrahydro-1-methyl-1-naphthalenyl)-1H-imidazole] | – | – | – | – | – | – | – | – | – | – | – | slight affinity |
| Cl.Oc1ccc2c(c1)CCC2c1c[nH]cn1 (stereo not shown) [Compound H, 2,3-dihydro-1-(1H-imidazol-4-yl)-1H-indene-5-ol hydrochloride] | 0.21 µM | 36 nM | -23% | -48% | -19% | -55% | 236.7 mg/kg | – | – | – | – | – |
